Series [1] relates to human liver cancer cells HepG-2. As to the kind of experiment: Antitumor activity, MTT method, HepG-2. The format is cell-based. As to the method: (§1) Antitumor activity was determined by the MTT (3-(4,5-dimethylthiazol-2-yl)-2,5-diphenyltetrazolium bromide) method.
(§2) One hundred μL of a suspension of tumor cells in an RPMI 1640 medium was seeded into a 96-well plate (1×10^4 cells/well) and cultured for 24 hours (5% CO2, 37° C., saturated humidity conditions). Subsequently, the test compound (final concentration of from 1×10^−5 to 1×10^−8 M) and DMSO as a control were each added in an amount of 0.2 μL and allowed to act on the tumor cells for 48 hours. Subsequently, 10 μL of a 0.5% MTT solution was added. After 3 hours, 100 μL of a reaction terminating solution (0.04 N HCl/isopropanol) was added to terminate the reaction. After thorough pipetting, the absorbance was measured at 570 nm (top) and 655 nm (bottom) using a microplate reader. The cell survival rate for each sample at each concentration was calculated as a percentage to the control group, and IC50 values were determined from the data. The tumor cells used were human neuroblastoma cells IMR-32, SK-N-SH, LA-N-1, and NB-39 and human liver cancer cells HepG-2. Non-tumor cells: normal human dermal fibroblasts (NHDF) and human umbilical vein endothelial cells (HUVEC) were also used.
(Tetrazolium dyes change colour on reduction, which living cells bring about.)

The subject of series [2] is human liver cancer cell line HepG2. As to the kind of experiment: Antitumor activity (2), Alamar Blue cell survival. The format is cell-based. Conditions: 24 hours, read-out: cytotoxic activity (IC50: 50% inhibitory concentration). As to the method:
Fetal bovine serum (FBS) was added at a final concentration of 10% to dulbecco's modified eagle's medium (DMEM, Sigma-Aldrich), and a penicillin-streptomycin solution (GIBCO) was further added at a concentration of 0.1 mg/mL.
An Alamar Blue solution manufactured by Wako Pure Chemical Industries, Ltd. was used.
One hundred μL aliquot of a suspension of human liver cancer cell line HepG2 cells in DMEM medium (1.0×10^5 cells/mL) was dispensed into a 96-well culture plate. The cells were allowed to adhere to the plate by being cultured at 37° C. in 5% CO2 under saturated humidity conditions. After culture for 24 hours, the medium was removed by suction, and 100 μL of a test compound-containing medium (containing 1% DMSO) was added. The cells were cultured at 37° C. in 5% CO2 under saturated humidity conditions. After culture for 24 hours, the medium was removed by suction, and the cells were washed with phosphate buffered saline (PBS). The Alamar Blue reagent solution (100 μL) diluted 10 times with the medium was added to each well, and the cells were cultured under the same conditions. After 1 hour, the fluorescence intensity was measured at an excitation wavelength of 577 nm and a detection wavelength of 612 nm. When the cell survival rate was calculated, the value for the well added with the vehicle (containing 1% DMSO) was normalized as 100%.
Background: Alamar Blue is a resazurin reagent that responds to reducing activity.

Series [3] relates to human neuroblastoma cells NB-39. As to the kind of experiment: Antitumor activity, MTT method, NB-39. In kind it is cell-based. As to the method:
as §1, §2

Series [4] concerns human neuroblastoma cells IMR-32. The series can be described thus: Antitumor activity, MTT method, IMR-32. The format is cell-based. The protocol:
as §1, §2

Series [5] relates to normal human dermal fibroblasts (NHDF). As to the kind of experiment: Cytotoxicity, MTT method, NHDF non-tumor cells. In kind it is cell-based. The protocol: as §1, §2
The test system of series [6] is human neuroblastoma cells LA-N-1. As to the kind of experiment: Antitumor activity, MTT method, LA-N-1. In kind it is cell-based. As to the method: as §1, §2
Series [7] relates to human neuroblastoma cells SK-N-SH. As to the kind of experiment: Antitumor activity, MTT method, SK-N-SH. The format is cell-based. The protocol:
as §1, §2

Series [8] has as its system human umbilical vein endothelial cells (HUVEC). The series can be described thus: Cytotoxicity, MTT method, HUVEC non-tumor cells. In kind it is cell-based. The protocol:
as §1, §2

For series [9], the system named is tumor cells. The series can be described thus: Antitumor activity, MTT method, overall statement on tumor cells. Conditions: from FIG. 1 and Table 1. In kind it is cell-based, human. As to the method: as §1, §2
Series [10] concerns human neuroblastoma IMR-32 cells. The series can be described thus: Ability to induce apoptosis, flow cytometry (Annexin V-FITC/PI). In kind it is cell-based. Conditions: 24 hours. The protocol:
Flow cytometry was used to detect whether the compound (HS-2) of the present invention had the ability to induce apoptosis of human neuroblastoma IMR-32 cells. Specifically, 2 mL of a suspension of cells (IMR-32) in an RPMI 1640 medium was seeded into a 6-well plate (1×10^6 cells/well) and cultured for 24 hours (under 5% CO2, 37° C., and saturated humidity conditions). Subsequently, the compound (HS-2) was added at a final concentration of from 1×10^−5 M to 1×10^−7 M and incubated under 37° C. and 5% CO2 conditions for 24 hours. The cells were detached with trypsin and washed with PBS. Annexin V-FITC and propidium iodide (PI) were then added to the cells to carry out flow cytometry. In this technique, only Annexin V-FITC fluorescence is observed from cells in the early apoptosis phase, and both Annexin V fluorescence and PI fluorescence are observed from cells in the late apoptosis phase.
Background: In flow cytometry, cells or beads pass a laser one at a time.

Series [11] relates to IMR-32 cells. The series can be described thus: Ability to induce apoptosis, Hoechst 33342 staining method. In kind it is cell-based, human. The protocol:
The ability to induce apoptosis was examined using nuclear staining by the Hoechst 33342 staining method.
Two mL of a suspension of cells (IMR-32) in an RPMI 1640 medium was seeded into a 6-well plate (1×10^5 cells/well) and cultured for 24 hours (under 5% CO2, 37° C., and saturated humidity conditions). Subsequently, the test compound (final concentration of from 1×10^−5 M to 1×10^−7 M) and DMSO as a control were each added in an amount of 4 μL and allowed to act on the cells for 24 hours. Subsequently, 100 μL of a 0.02% Hoechst 33342 solution was added. After 15 minutes, phase-contrast images and fluorescence images of the cells were taken with a fluorescence microscope to observe changes in cell morphology.

Structures are written as SMILES. “Also recorded” adds a separate entry of the source. Read-outs that look alike come from different tables or passages of the source. Some results are limits rather than exact numbers.

Regarding `[NH2][Pt]([NH2])([Cl])[Cl]` [CDDP, cisplatin, reference compound], the IC50 in series [1] (HepG-2, Table 1, read-out: IC50) is 10000 nM; in series [2] it was 10000 nM; in series [3] (NB-39, MTT, 48 hours, read-out: IC50) it was 2040 nM; in series [4] (IMR-32, MTT, 48 hours, read-out: IC50), 28200 nM; in series [5] (NHDF normal cells, MTT, 48 hours, read-out: IC50), more than 100000 nM; in series [6] (LA-N-1, MTT, 48 hours, read-out: IC50), 1630 nM. Also, the IC50 in series [7] (MTT, 48 hours, read-out: IC50) stood at 12100 nM; in series [8] (HUVEC normal cells, MTT, 48 hours, read-out: IC50) it was 69800 nM.

In the case of `O=C1Nc2ccccc2/C1=C1/Nc2ccccc2/C1=N\OCC1CO1` (stereo not drawn) [HS-2, indirubin-3′-(O-oxiran-2-ylmethyl)oxime], the “antitumor activity relative to cisplatin (CDDP)” value in series [9] was 50 to 100 times. Further, the apoptosis-inducing effect entry in [10] (IMR-32, 10 μM) was “significant apoptosis-inducing effect”. Besides, the “ability to induce apoptosis” value in series [10] (IMR-32, 1×10^−5 M to 1×10^−7 M, FIG. 3) is “induced apoptosis; also recorded: concentration-dependent ability to induce apoptosis”. Further, the IC50 worked out at 1000 nM in [1] (Homo sapiens, HepG2); 1000 nM in series [2] (Homo sapiens); 550 nM in [3] (Homo sapiens, NB39, 48 h); 329 nM in [4] (Homo sapiens, IMR-32, 48 h); 61400 nM in series [5] (Homo sapiens, NHDF, 48 h); 139 nM in [6] (Homo sapiens, LAN1, 48 h). The IC50 in [7] (Homo sapiens, 48 h) came to 325 nM; in series [8] (Homo sapiens, HUVEC, 48 h), 1750 nM. Moreover, in series [11] (FIG. 2 legend), the “apoptosis of IMR-32 neuroblastoma cells” value was “induced apoptosis”. Further, the “nuclear morphology (Hoechst 33342 staining)” value in [11] (IMR-32, 0.1 μM, 24 hours, FIG. 2) is “induced nuclear aggregation and fragmentation”.

The values above are taken from patent publication US9051306B2, “Indirubin derivative having highly selective cytotoxicity for malignant tumors” (NIHON UNIVERSITY, priority 2011, dated 2015).
